From patent US7091033B2, “Array of toxicologically relevant canine genes and uses thereof” (Phase-1 Molecular Toxicology, Inc., priority 2000, dated 2006)
Like-named read-outs stand apart in the source and are kept apart here.

Columns and labels:
Format in all cases: in vivo
[1] = system: canine genes of the array; experiment: Canine array fold induction of canine genes in kidney of canines dosed with test agents (Table 11); conditions: dog, 0.3 mg/kg, 10 days, gene = c0 of the row
Text: (§1) Table 11 depicts the fold induction for canine genes in a canine array.

[2] = system: canine genes of the array; experiment: Canine array fold induction of canine genes in liver of canines dosed with test agents (Table 11); conditions: dog, 0.3 mg/kg, gene = c0 of the row
Text: as §1

[3] = system: Cytochrome P450 2D (gene expression); experiment: Canine array fold induction of canine genes in kidney of dogs dosed with an agent (Table 11); conditions: dog, kidney, 0.3 mg/kg, canine kidney, 10 days
Text: as §1

[4] = system: Cytochrome P450 2C41 (gene expression); experiment: as above; conditions: dog, kidney, 0.3 mg/kg, canine kidney, 10 days
Text: as §1

[5] = system: canine genes in a canine array (Canine kidney); experiment: as above; conditions: canine kidney, 0.3 mg/kg, 10 days; for fold induction at 0.3 mg/kg: Canis lupus familiaris, 240 h
Text: as §1

[6] = system: Cytochrome P450 2B (gene expression); experiment: as above; conditions: dog, kidney, 0.3 mg/kg, canine kidney, 10 days
Text: as §1

fold induction at 10 days ([1]; 0.3 mg/kg, 10087, canine kidney): 1.6
fold induction at 10 days ([1]; 0.3 mg/kg, 10089, canine kidney): 1
fold induction at 10 days ([2]; 0.3 mg/kg, 10196, Canine Liver, 10 days): 1
fold induction at 10 days ([2]; 0.3 mg/kg, 10316, Canine liver, 10 day): 1.2
fold induction at 10 days [3]: 1.2
fold induction at 10 days [4]: 1.7
Alkaline phosphatase fold induction [5]: 1.6
Caveolin-2 fold induction [5]: 1.6
fold induction at 10 days [6]: 1.2
SMILES: C[C@]12CC[C@@H]3c4ccc(O)cc4CC[C@H]3[C@@H]1CC[C@@H]2O [Estradiol]
fold induction at 0.3 mg/kg ([5]; read-out: Alkaline phosphatase fold induction): 1.4
fold induction at 0.3 mg/kg ([5]; read-out: Angiopoietin-related protein 3 (ANGPTL3) fold induction): 1.1
fold induction at 0.3 mg/kg ([5]; read-out: BRCA1 fold induction): 1.1
fold induction at 0.3 mg/kg ([5]; read-out: Beta-glucuronidase fold induction): 1.3
fold induction at 0.3 mg/kg ([5]; read-out: CD40 ligand fold induction): 1.1
fold induction at 0.3 mg/kg ([5]; read-out: Catalase fold induction): 1.2
fold induction at 0.3 mg/kg ([5]; read-out: Caveolin-1 fold induction): 1.4
fold induction at 0.3 mg/kg ([5]; read-out: Caveolin-2 fold induction): 1.7
fold induction at 0.3 mg/kg ([5]; read-out: Cubilin fold induction): 1.1
fold induction at 0.3 mg/kg ([5]; read-out: Cytochrome c oxidase subunit VIIaL fold induction): 1
fold induction at 0.3 mg/kg ([5]; read-out: c-erb B-2 fold induction): 1.3
